These results are taken from PMC11224359, “Stable peptide-assembled nanozyme mimicking dual antifungal actions” (Nature Communications, 2024).

Data set [1] in a line: Peptide self-assembly morphology by TEM. It is filed as physicochemical. How it is done: Powders of each of the peptides were dissolved in 1.5 mM Ni(Ac)2 solution to a certain concentration range (e.g. 0.0–1.5 mM) and sonicated for a period of time, and were then allowed to cool gradually to 25 °C overnight. Aged samples could be left at room temperature for more than 90 days.
TEM images were recorded using a JEM1200EX (JEOL) (Japan) operating at 100 kV dropped on a double copper net. Typically, 1.5 mM samples are diluted 10-fold and stained with 3% uranyl acetate for viewing. For AFM, liquid Ni-IH-7 ([…]) was dropped on a mica sheet and observed by Bruker Dension Icon (Germany). The AMFM data were fitted using the Analyze panel module in Igor Pro software to obtain a modulus curve, yielding the average Young’s modulus. Simultaneously, we utilized the Hertz model force curve fitting results to validate the reliability of the Young’s modulus. Cryo-EM and two-dimensional classification data of Ni-IH-7 were collected by Talos Arctica 200 kV FEG (USA). AMFM was tested using Cypher S (USA) in the presence of AC160TS-R3 (probe). Samples were diluted 50 times and dried on mica flakes. KPFM was tested using Cypher S (USA) and obtain the Contact potential difference. The standard highly oriented pyrolytic graphite was 675 mV. HAADF-STEM was obtained by JEM ARM 200 F (accelerating voltage: 200 kV) (JEOL, Japan).

A short description of data set [2]: Variable temperature circular dichroism. It is filed as physicochemical. The method, then: The Ultraviolet-visible (UV-VIS) spectroscopy of samples were collected by a Shimadzu UV-3600. For FTIR, 3 mg of powdered sample and 50 mg of potassium bromide (KBr) were mixed for tablet compression analysis with transmittance at 400–4000 cm^−1, collected using an iS10 FTIR spectrometer (USA). Measurements were performed by averaging 32 scans at 4-cm^−1 resolution (signal-to-noise ratio (S/N) = 50,000). The single-molecule STM imaging experiments were performed under ambient conditions by using a Nanoscope IIIa SPM system (Bruker, USA). 10 μL of the peptide solution was incubated on the surface of freshly cleaved highly oriented pyrolytic graphite (HOPG) at room temperature for 20 min. Then the excess peptide solution was removed from the substrate surface. The STM tips were mechanically made by Ir/Pt wires (20/80). Different STM tips and samples were used in these imaging experiments to ensure reproducibility. […] Zeta potentials of samples were determined using a Zetasizer Nano ZS90 (England) via three tests in a 1-mL sample cell. All CD datum were collected using Chirascan Plus (England) and analyzed at 190-260 nm. […] Pyridine infrared (IR) were measured at 1400–1700 cm^−1 using Thermo Scientific Nicolet 380 (USA). […] The fluorescence signals (I374nm, I394nm) were collected for detecting CMC using the pyrene probe under excitation at 330 nm across various concentrations of peptides.
Background: Circular dichroism is the unequal absorption of left and right circularly polarised light.

For the substance ICICICI [heptapeptide ICICICI], the assembly into nanostructure entry in data set [1] is “could not form typical nanostructure”.

Regarding IHIHICI [Ni-IH-7], the “thermal stability of conformation” value in data set [2] is given as “retained β-sheet conformation”. For the same substance, the “resistance to enzymatic degradation by snailase” value with snailase is listed as “considerable resistance to enzymatic degradation”. The “resistance to enzymatic degradation by neutral protease” value in the data set on neutral protease is “considerable resistance to enzymatic degradation”. Also, the “resistance to enzymatic degradation by lyticase” value in the data set with lyticase was “considerable resistance to enzymatic degradation”.
